In the NIST ThermoML archive (doi:10.1007/s10765-010-0768-y):

Assay: xn = mol fraction of the nth substance listed
Details: 101 kPa, Liquid, Pycnometric method

C=CC(=O)OCCCC [butyl 2-propenoate] + Cc1ccccc1
mass density [kg/m3]
Details	288.15 K	293.15 K	298.15 K	303.15 K	308.15 K	313.15 K	318.15 K
x1 = 0.0704	875.4	870.63	865.86	861.09	856.32	851.55	846.79
x1 = 0.1402	878.72	873.92	869.12	864.32	859.52	854.72	849.92
x1 = 0.2054	881.63	876.8	871.97	867.14	862.31	857.48	852.65
x1 = 0.2799	884.72	879.86	875	870.15	865.31	860.47	855.63
x1 = 0.3604	887.81	882.94	878.07	873.2	868.34	863.48	858.62
x1 = 0.4338	890.4	885.52	880.64	875.77	870.9	866.03	861.16
x1 = 0.5098	892.88	888	883.12	878.24	873.36	868.48	863.6
x1 = 0.5836	895.08	890.19	885.31	880.43	875.55	870.67	865.79
x1 = 0.6584	897.1	892.22	887.34	882.46	877.58	872.7	867.82
x1 = 0.7198	898.6	893.73	888.86	883.99	879.12	874.25	869.38
x1 = 0.7912	900.18	895.32	890.46	885.6	880.75	875.9	871.05
x1 = 0.8578	901.48	896.64	891.8	886.96	882.12	877.28	872.44
x1 = 0.9324	902.74	897.93	893.12	888.31	883.5	878.69	873.88
x1 = 1	903.6	898.85	894.1	889.35	884.6	879.85	875.1

C=CC(=O)OCCCC [butyl 2-propenoate] + Cc1ccccc1C
mass density [kg/m3]
Details	288.15 K	293.15 K	298.15 K	303.15 K	308.15 K	313.15 K	318.15 K
x1 = 0.0685	885.81	881.5	877.19	872.88	868.57	864.26	859.95
x1 = 0.1306	887.32	882.97	878.62	874.27	869.92	865.57	861.22
x1 = 0.2018	889	884.6	880.2	875.8	871.41	867.02	862.63
x1 = 0.2738	890.63	886.19	881.75	877.31	872.87	868.44	864.01
x1 = 0.3654	892.61	888.12	883.63	879.14	874.65	870.17	865.69
x1 = 0.4331	894.01	889.49	884.97	880.45	875.93	871.41	866.89
x1 = 0.5072	895.49	890.93	886.37	881.81	877.25	872.7	868.14
x1 = 0.589	897.05	892.45	887.85	883.25	878.65	874.06	869.47
x1 = 0.6522	898.2	893.57	888.94	884.31	879.68	875.06	870.44
x1 = 0.7283	899.51	894.85	890.19	885.53	880.87	876.21	871.55
x1 = 0.7924	900.56	895.87	891.18	886.49	881.8	877.12	872.44
x1 = 0.8587	901.6	896.88	892.16	887.45	882.74	878.03	873.32
x1 = 0.9298	902.64	897.9	893.16	888.42	883.69	878.96	874.23
x1 = 1	903.6	898.85	894.1	889.35	884.6	879.85	875.1

C=CC(=O)OCCCC [butyl 2-propenoate] + c1ccccc1
mass density [kg/m3]
Details	288.15 K	293.15 K	298.15 K	303.15 K	308.15 K	313.15 K	318.15 K
x1 = 0.0722	887.23	881.89	876.56	871.23	865.9	860.57	855.24
x1 = 0.142	889.79	884.48	879.17	873.86	868.56	863.26	857.96
x1 = 0.2062	891.94	886.65	881.36	876.08	870.8	865.52	860.24
x1 = 0.2794	894.12	888.87	883.62	878.37	873.12	867.87	862.62
x1 = 0.3586	896.24	891.02	885.8	880.58	875.36	870.14	864.92
x1 = 0.4363	898.02	892.83	887.64	882.46	877.28	872.1	866.92
x1 = 0.5074	899.4	894.25	889.11	883.97	878.83	873.69	868.55
x1 = 0.5818	900.63	895.53	890.43	885.33	880.23	875.13	870.03
x1 = 0.6423	901.47	896.4	891.33	886.26	881.2	876.14	871.08
x1 = 0.7226	902.36	897.34	892.32	887.3	882.29	877.28	872.27
x1 = 0.7902	902.91	897.94	892.97	888	883.03	878.07	873.11
x1 = 0.8563	903.29	898.38	893.47	888.56	883.65	878.75	873.85
x1 = 0.9305	903.53	898.69	893.85	889.01	884.18	879.35	874.52
x1 = 1	903.6	898.85	894.1	889.35	884.6	879.85	875.1
